The values that follow come from ChEMBL document CHEMBL5042524, “Discovery of Novel Histone Deacetylase 6 (HDAC6) Inhibitors with Enhanced Antitumor Immunity of Anti-PD-L1 Immunotherapy in Melanoma” (J Med Chem, 2022).

Data set [1] relates to Jurkat. The data set is described as follows: Effect on acetyl-SMC3 expression level in human Jurkat T cells at 0.1 to 0.4 uM incubated for 6 hrs by Western blot analysis. The format is functional, cell-based. The settings on record: dose 0.1-0.4 µM. For orientation: A western blot detects proteins with antibodies after separation by electrophoresis.
Data set [2] in a line: Cardiotoxicity in C57BL/6 mouse at 50 mg/kg, IG administered once daily via gavage for 14 days by ECG analysis. The settings on record: in vivo, po, 336 h, time 14 day. The class given is toxicity, organism-based.
Data set [3] has as its system Jurkat. The data set is described as follows: Effect on acetyl-H3 expression level in human Jurkat T cells at 0.1 to 0.8 uM incubated for 6 hrs by Western blot analysis. The class given is functional, cell-based. To be noted: dose 0.1-0.8 µM.
The target in data set [4] is T1, Protein deacetylase HDAC6 (Homo sapiens, UniProt Q9UBN7).
T1 sequence (Q9UBN7 whole entry): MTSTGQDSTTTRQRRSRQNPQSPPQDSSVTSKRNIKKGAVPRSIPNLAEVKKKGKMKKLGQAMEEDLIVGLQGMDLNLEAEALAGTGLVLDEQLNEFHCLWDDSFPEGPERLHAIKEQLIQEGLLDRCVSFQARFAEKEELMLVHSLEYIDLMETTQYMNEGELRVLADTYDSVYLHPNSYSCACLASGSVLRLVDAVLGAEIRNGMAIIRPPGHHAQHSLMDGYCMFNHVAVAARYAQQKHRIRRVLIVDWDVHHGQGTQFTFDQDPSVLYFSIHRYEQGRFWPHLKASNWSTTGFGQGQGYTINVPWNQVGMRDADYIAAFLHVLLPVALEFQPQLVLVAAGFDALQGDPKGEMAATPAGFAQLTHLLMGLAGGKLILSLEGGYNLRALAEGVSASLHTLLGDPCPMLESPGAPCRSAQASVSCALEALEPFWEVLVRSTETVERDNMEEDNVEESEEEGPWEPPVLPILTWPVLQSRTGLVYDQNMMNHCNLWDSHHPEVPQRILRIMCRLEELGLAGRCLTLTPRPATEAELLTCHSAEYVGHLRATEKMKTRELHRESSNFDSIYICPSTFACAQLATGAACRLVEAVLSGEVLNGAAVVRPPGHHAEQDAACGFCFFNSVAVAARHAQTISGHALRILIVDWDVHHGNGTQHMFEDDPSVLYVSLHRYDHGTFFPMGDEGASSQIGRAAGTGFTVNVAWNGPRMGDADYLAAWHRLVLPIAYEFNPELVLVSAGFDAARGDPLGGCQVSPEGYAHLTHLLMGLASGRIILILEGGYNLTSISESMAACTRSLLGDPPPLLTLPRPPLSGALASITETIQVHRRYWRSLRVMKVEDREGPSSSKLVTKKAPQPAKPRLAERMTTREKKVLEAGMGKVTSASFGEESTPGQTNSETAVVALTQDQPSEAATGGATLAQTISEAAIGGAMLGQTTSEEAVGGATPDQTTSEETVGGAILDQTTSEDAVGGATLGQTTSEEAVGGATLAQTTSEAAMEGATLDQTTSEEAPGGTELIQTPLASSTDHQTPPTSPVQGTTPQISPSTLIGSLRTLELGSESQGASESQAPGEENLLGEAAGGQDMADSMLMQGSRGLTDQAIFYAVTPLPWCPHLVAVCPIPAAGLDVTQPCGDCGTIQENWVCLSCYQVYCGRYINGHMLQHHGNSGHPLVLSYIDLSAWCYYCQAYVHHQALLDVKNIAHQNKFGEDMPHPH
The data set is described as follows: Inhibition of recombinant human N-terminal GST tagged HDAC6 expressed in baculovirus infected Sf9 insect cells using Ac-Leu-Gly-Lys (Ac)-AMC as substrate preincubated for 5 mins followed by substrate addition and measured after 30 mins by fluorescence microtiter plate reader assay.

Data set [5] can be described thus: MRT (0 to infinity) in Sprague-Dawley rat at 10 mg/kg, po measured upto 48 hrs by LC-MS/MS analysis. The format is ADME, organism-based. To be noted: in vivo.
Data set [6] can be described thus: Clearance in Sprague-Dawley rat at 10 mg/kg, po measured upto 48 hrs by LC-MS/MS analysis. The format is ADME, organism-based. To be noted: in vivo.
Data set [7] concerns Jurkat. The data set is described as follows: Effect on acetyl-H3 expression level in human Jurkat T cells at 0.1 to 0.4 uM incubated for 6 hrs by Western blot analysis. The format is functional, cell-based. To be noted: dose 0.1-0.4 µM.
Data set [8] deals with Jurkat. The data set can be described thus: Induction of apoptosis in human Jurkat T cells assessed as upregulation of acetylated Ku70 expression measured after 6 hrs by Western blot analysis. The class given is functional, cell-based. The settings on record: dose 0.2-2 µM.
The subject of another data set is MCF7. The data set is described as follows: cells. The format is functional, cell-based. To be noted: Homo sapiens, MCF7, 48 h.
The subject of data set [9] is B16-F10. The data set is described as follows: cells. The format is functional, cell-based. To be noted: Mus musculus, B16-F10, 48 h.
Description: Antiproliferative activity against mouse B16-F10 cells assessed as inhibition of cell proliferation measured after 48 hrs by MTT assay
The subject of data set [10] is B16-F10. The data set can be described thus: Antitumour activity against mouse B16-F10 cells allografted in C57BL/6 mouse model assessed as increase in acetylated alpha tubulin expression level in tumor at 50 mg/kg, ip measured after 14 days by […] based microscopic analysis (Rvb =1.77%). The format is functional. The settings on record: time 14 day.
The test system of the next data set is Mus musculus. The data set can be described thus: Myelosuppression in C57BL/6 mouse assessed as change in granulocyte count at 50 mg/kg, IG administered once daily via gavage for 14 days. The class given is toxicity, organism-based. The settings on record: in vivo, po, 336 h, time 14 day.
For data set [11], the system named is B16-F10. The data set is described as follows: Effect on acetyl-SMC3 expression level in mouse B16-F10 cells at 1 to 8 uM incubated for 6 hrs by Western blot analysis. The format is functional, cell-based. To be noted: dose 1-8 µM.
A short description of data set [12]: Potency index, ratio of MS-275 IC50 to test compound IC50 for antiproliferative activity against human YCC3/7 cells assessed as cell growth inhibition. The format is functional.
The subject of data set [13] is B16-F10. The data set is described as follows: Antitumor activity against mouse B16-F10 cells allografted in C57BL/6 mouse assessed as tumor growth inhibition at 50 mg/kg, ip administered daily for 14 days by caliper method (Rvb= 63%). The format is functional. The settings on record: 336 h, time 14 day, read-out: TGI.
Data set [14] is described as follows: Resistance index, ratio of IC50 for antiproliferative activity against human YCC3/7 cells to IC50 for antiproliferative activity against human YCC-11 cells. The class given is functional.
A short description of data set [15]: AUC (0 to infinity) in Sprague-Dawley rat at 2 mg/kg, iv measured upto 48 hrs by LC-MS/MS analysis. The format is ADME, organism-based. Details: route intravenous, dose 2 mg/kg, time <=48. The settings on record: in vivo.
Data set [16] is described as follows: Toxicity in C57BL/6 mouse allografted with B16-F10 cells assessed as body weight loss at 50 mg/kg, ip administered daily for 14 days in combination with 2-(5-chloro-2-(3-cyanobenzyloxy)-4-((2-methylbiphenyl-3-yl)methoxy)benzylamino)-2-methylpropanoic acid. The settings on record: in vivo, 336 h, time 14 day. The class given is organism-based.
Data set [17] can be described thus: Antiproliferative activity against human YCC-11 cells assessed as cell growth inhibition. The format is functional, cell-based.
The test system of another data set is HCT-116. The data set is described as follows: cells. The format is functional, cell-based. The settings on record: Homo sapiens, HCT-116, 48 h.
In data set [18] the test system is B16-F10. The data set is described as follows: Upregulation of acetylated alpha-tubulin expression in mouse B16-F10 cells incubated for 6 hrs by Western blot analysis. The class given is functional, cell-based. To be noted: dose 0.1-2 µM.
The test system of data set [19] is Jurkat. The data set is described as follows: Induction of apoptosis in human Jurkat cells assessed as upregulation of Ku70 expression at 0.2 to 2 uM measured after 24 hrs by Western blot analysis. The class given is functional, cell-based. To be noted: dose 0.2-2 µM.
The test system of data set [20] is B16-F10. The data set can be described thus: Effect on acetyl-H3 expression level in mouse B16-F10 cells at 1 to 8 uM incubated for 6 hrs by Western blot analysis. The format is functional, cell-based. The settings on record: dose 1-8 µM.
The nature of data set [21]: Toxicity in C57BL/6 mouse bearing B16-F10 tumor assessed as morphological changes in liver at 50 mg/kg, ip administered for 14 days by H and E staining based microscopic analysis. The format is organism-based. The settings on record: in vivo, 336 h, time 14 day.

The source made the active and inactive calls. No cut-off for these calls is given here.

Description for HCT-116: Antiproliferative activity against human HCT-116 cells assessed as inhibition of cell proliferation measured after 48 hrs by MTT assay
Description for MCF7: Antiproliferative activity against human MCF7 cells assessed as inhibition of cell proliferation measured after 48 hrs by MTT assay

`COc1ccc(-c2ncc(C(=O)NCCCCCCC(=O)NO)s2)c(OC)c1`: the result in the data set on Jurkat [1], with Jurkat [3], in the data set on Jurkat [7], with B16-F10 [11] and in the data set with B16-F10 [20] was Active. Also, the Activity entry in data set [2] was “Non-Toxic”; in the data set with Jurkat [8] it was “Dose-Dependent Effect”; in the data set on B16-F10 [10], 43.6%; in the data set on Mus musculus, “Non-Toxic”; in data set [16], “Non-Toxic”; with B16-F10 [18], “Dose-Dependent Effect”. In data set [21], the Activity entry is “Non-Toxic”. The IC50 in data set [4] worked out at 31 nM; with MCF7, 910 nM; in the data set with B16-F10 [9], 2310 nM; in data set [17], 920 nM; in the data set on HCT-116 it was 510 nM. In [5], the MRT inf is 8.5 h. Further, the CL in data set [6] was 2402 mL/min/kg. For the same compound, the “Ratio IC50” value is 6 in data set [12] and 1.2 in [14]. Also, in the data set with B16-F10 [13], the inhibition in vivo at 50 mg/kg was determined as 48%. In [15], this compound gave an AUC(0-inf) of 319 ng·h/mL. Also, the outcome in the data set with Jurkat [19] was inactive.

Regarding `COc1ccc(-c2ncc(C(=O)NCCCCCCC(=O)NO)[nH]2)c(OC)c1`, the result with Jurkat [1], in the data set on Jurkat [3], in the data set with Jurkat [7], in the data set with B16-F10 [11] and with B16-F10 [20] was Active. The IC50 in data set [4] turned out to be 48 nM; in the data set on MCF7 it was 2680 nM; in the data set on B16-F10 [9] it was 5260 nM; in data set [17], 1280 nM; in the data set with HCT-116, 1170 nM. Further, the Activity result in the data set with Jurkat [8] and in the data set with B16-F10 [18] was “Dose-Dependent Effect” in each case. Moreover, the result in the data set with Jurkat [19] was inactive.

Broadly, the IC50 is the concentration that gives 50% inhibition. By MRT inf is commonly meant a mean duration of stay, worked out from the concentration-time curve. As usually defined, the AUC(0-inf) is total exposure, with the tail of the curve extrapolated.
